Data published in US20220267380A1, “Glycopeptides Increasing Lipid Synthesis” (TFCHEM, priority 2019, published 2022).

Test system: normal human dermal fibroblasts (NHDF)
Experiment: Gene expression in NHDF, full transcriptome analysis with Affymetrix U219 microarray
Format: cell-based
Settings: NHDF, 10 mg/ml, 24 h
Procedure: In the present study, the transcriptional effects (modulation of gene expression) of compounds 1, 2, 3 and 4 were evaluated on normal human dermal fibroblasts (NHDF) under basal conditions.
More specifically, the comparative analysis of the different transcriptomic profiles was performed using an Affymetrix GeneAtlas platform and the human “full transcriptome” U219 chip, which includes 36,000 transcripts and variants.
Fibroblasts were seeded in 24-well plates and cultured in culture medium for 24 hours. The medium was then replaced by assay medium and cells were incubated for further 24 hours. The medium was replaced by assay medium containing or not (control) the test compounds at different concentrations and the cells were preincubated for 24 hours. All experimental conditions were performed in triplicate. At the end of incubation, the culture supernatants were removed and the cells were washed in a phosphate buffered saline (PBS) solution and immediately frozen at −80° C.
Before RNA extraction, the replicates were pooled. Total RNA was extracted from each sample using TriPure Isolation Reagent® according to the supplier's instructions. The amount and quality of total RNA were evaluated for all samples using capillary electrophoresis (Bioanalyzer 2100, Agilent technologies). From each RNA, a labeled and amplified anti-sens RNA (aRNA) was obtained using GeneChip 3′IVT PLUS Kit (Affymetrix). For each labeled and amplified aRNA sample the profiles were evaluated before and after fragmentation using capillary electrophoresis (Bioanalyzer 2100, Agilent technologies). Hybridization of fragmented aRNA onto Affymetrix® U219 chip (36,000 transcripts and variants) was performed in the GeneAtlas™ fluidics Affymetrix® hybridization station for 20 hours at 45° C. U219 chip was analyzed using the GeneAtlas™ Imaging station (Affymetrix®—resolution 2 μm) to generate fluorescence intensity data.
Expression Console and Quality controls: data were normalized with the Expression Console (Affymetrix®) software using RMA algorithm. Then a quality control of the labeling and the hybridization was performed. Hybridization and labeling steps successfully passed the quality controls for these experiments.
Data reduction, Excel file description: once normalized with Expression Console, data were transferred into a Microsoft Excel® file in order to go further into data reduction.
Calculation and tools were added in order to rank and sort data, and finally to support data interpretation. Detection thresholds in terms of fold change were defined and applied on normalized data.
Results are considered and presented or commented per gene (and not probe). A probe set is a collection of probes designed to interrogate a given sequence of a gene. For data interpretation, the most important relative expression value obtained with one probe is considered to be representative of the corresponding gene. The file contains the following data: • Relative expression (RE) for each sample, • Fold change calculation, • Gene information.

[1] = relative expression adjusted to detection limit (<20)

With `C[C@H](NC(=O)[C@H](C)NC(=O)[C@@H](N)CCCCNCC(F)(F)[C@]1(O)O[C@H](CO)[C@H](O)[C@H](O)[C@H]1O)C(=O)O` [Compound 1] the “Fold change, PHLDB2” value (vs control, probe set 11737043_x_at) was 2.47, the “Fold change, NPC1” value (vs control, probe set 11743916_a_at) was 6.53 and the “Fold change, FADS2” value (vs control, probe set 11744899_a_at) was 2.64. The “Fold change, FADS2” value (vs control, probe set 11744902_a_at) was 2.09, the “Fold change, FADS1///MIR1908” value (vs control, probe set 11745459_a_at) was 4.20 and the “Fold change, LPCAT3” value (vs control, probe set 11746281_a_at) was 2.31. The “Fold change, NPC1” value (vs control, probe set 11746723_a_at) was 4.53, the “Fold change, LDLR” value (vs control, probe set 11746974_a_at) was 2.99 and the “Fold change, MVK” value (vs control, probe set 11747747_a_at) was 2.02. The “Fold change, LDLR” value (vs control, probe set 11748045_x_at) was 2.84, the “Fold change, GBA///GBAP1” value (vs control, probe set 11748292_a_at) was 2.57 and the “Fold change, POR” value (vs control, probe set 11748368_x_at) was 2.03. The “Fold change, PGS1” value (vs control, probe set 11748428_a_at) was 2.41, the “Fold change, DHCR24” value (vs control, probe set 11749042_a_at) was 2.15 and the “Fold change, EBP” value (vs control, probe set 11749332_x_at) was 2.66. The “Fold change, PTGS1” value (vs control, probe set 11749730_a_at) was 3.89, the “Fold change, GBA” value (vs control, probe set 11750975_x_at) was 2.68 and the “Fold change, GBA” value (vs control, probe set 11751085_a_at) was 3.02. The “Fold change, GBA” value (vs control, probe set 11751086_x_at) was 2.37, the “Fold change, GBA///GBAP1” value (vs control, probe set 11751098_a_at) was 3.03 and the “Fold change, GBA///GBAP1” value (vs control, probe set 11751099_x_at) was 2.75. The “Fold change, DHCR24” value (vs control, probe set 11751337_a_at) was 2.27, the “Fold change, DHCR24” value (vs control, probe set 11751338_x_at) was 2.26 and the “Fold change, FADS1///MIR1908” value (vs control, probe set 11752670_a_at) was 4.05. The “Fold change, GBA///GBAP1” value (vs control, probe set 11753439_a_at) was 2.64, the “Fold change, GBA///GBAP1” value (vs control, probe set 11754819_x_at) was 2.59 and the “Fold change, HMGCS1” value (vs control, probe set 11754918_s_at) was 2.32. For the same molecule, the “Fold change, FADS2” value (vs control, probe set 11754939_x_at) was 2.11, the “Fold change, LPCAT3” value (vs control, probe set 11755123_x_at) was 2.37 and the “Fold change, FADS1///MIR1908” value (vs control, probe set 11755251_x_at) was 4.13. The “Fold change, APOD” value (vs control, probe set 11756065_x_at) was 0.24, the “Fold change, LPCAT3” value (vs control, probe set 11757008_a_at) was 2.86 and the “Fold change, LPCAT3” value (vs control, probe set 11757009_x_at) was 2.10. The “Fold change, FDPS” value (vs control, probe set 11758249_s_at) was 2.10, the “REadj2, ABCA1” value [1] was 979.20 and the “REadj2, ABHD4” value [1] was 65.43. The “REadj2, ABHD5” value [1] was 212.72, the “REadj2, ACAT2” value [1] was 1280.94 and the “REadj2, AKR1C1” value [1] was 3725.47. For the same molecule, the “REadj2, AKR1C2” value [1] was 209.16, the “REadj2, CH25H” value [1] was 60.89 and the “REadj2, CYP51A1///LRRD1” value [1] was 1291.92. The “REadj2, DHCR7” value [1] was 695.09, the “REadj2, HMGCR” value [1] was 395.78 and the “REadj2, HSD17B7” value [1] was 91.10. For the same molecule, the “REadj2, HSD17B14” value [1] was 46.74, the “REadj2, IDI1” value [1] was 1244.81 and the “REadj2, LPIN1” value [1] was 240.89. The “REadj2, LRP8” value [1] was 93.15, the “REadj2, MSMO1” value [1] was 1789.72 and the “REadj2, MVD” value [1] was 262.34. For the same molecule, the “REadj2, NEU1” value [1] was 555.40.
